This note sets out measurements from paper PMC5641094, “A peptide antagonist of Prep1-p160 interaction improves ceramide-induced insulin resistance in skeletal muscle cells” (Oncotarget, 2017).

What all share (type): cell-based, rat
Assay [1] relates to L6 cells. In words: Glycogen content in L6 cells. Particulars: for effect on insulin-stimulated glycogen synthesis: insulin 100nM, C2cer 10μM, with or without Prep1(54-72). The protocol: Figure 6 Effect of Prep1(54-72) peptide on glycogen content and 2-DG uptake L6 control and Prep1 overexpressing cells were stimulated with Insulin (100nM) and/or C2cer (10μM) and incubated with Prep1(54-72). (A) Glycogen content and (B) 2-DG uptake were measured as described in methods. Bars represent the mean ± SD of three independent experiments. Asterisks denote statistically significant differences (*p<0.05; **p<0.01; ***p<0.001).
Glycogen was isolated from L6 cells homogenized in 0.1% SDS, saturated with Na2SO4 for 30 minutes at 37°C, followed by ethanol (EtOH) precipitation. Glycogen content was determined as previously described. 2-DG uptake by the L6 cells was measured as previously reported.

Assay [2] concerns PGC-1α and GLUT4 protein expression. In words: PGC-1α and GLUT4 protein expression, Western blot. The protocol:
Figure 5 Effect of Prep1(54-72) peptide on Akt phosphorylation and PGC-1α and GLUT4 protein levels (A-B) L6 control and Prep1 overexpressing cells were stimulated with Insulin (100nM) and/or C2cer (10μM) and incubated with Prep1(54-72). Protein lysates were analyzed by Western blot using antibodies for pAkt, Akt and for the beta-actin, as a loading control. (C) PGC-1α and GLUT4 protein levels were measured by using specific antibodies for these proteins and beta-actin antibody was used as loading control. Blots were detected by ECL and autoradiography. The autoradiographs are representative of four independent experiments. Asterisks denote statistically significant differences (*p<0.05; **p<0.01; ***p<0.001).
(§1) Total cell lysates were obtained and separated by SDS-PAGE. Briefly, cells were solubilized with lysis buffer containing 50mM HEPES, 150mM NaCl, 10mM EDTA, 10mM Na4P2O7, 2mM sodium orthovanadate, 50mM NaF, 1mM phenylmethylsulfonyl fluoride, 10μg/ml aprotinin, 10μg/ml leupeptin, pH 7.4, and 1% (v/v) Triton X-100. Lysates were clarified by centrifugation at 12,000g for 20 minutes at 4°C. The protein concentrations in the cell lysates were measured using a Bio-Rad DC (detergent compatible) assay. Immunoprecipitation and Western blot analysis have been performed as previously described.
A general note: A western blot detects proteins with antibodies after separation by electrophoresis.

Assay [3] deals with IR tyrosine phosphorylation. In words: IR tyrosine phosphorylation, immunoprecipitation and Western blot. Particulars: insulin 100nM; for effect on insulin-stimulated IR tyrosine phosphorylation: L6 cells, C2cer 10μM 18h, with or without Prep1(54-72). The protocol: (§2) Figure 4 Prep1(54-72) peptide restores the insulin signaling inhibited by C2cer and Prep1 L6 cells were stimulated with insulin (100nM) and incubated with Prep1(54-72) in presence of C2cer at 10μM for 18h (A-B) or stable transfection of Prep1 (C-D). Protein lysates were immunoprecipitated with specific IR or IRS1 antibodies and analyzed by Western blot using antibodies for phosphotyrosines (pY) and beta-actin as loading control. Blots were detected by ECL and autoradiography. The autoradiographs are representative of three independent experiments. Asterisks denote statistically significant differences (*p<0.05; **p<0.01).
as §1

Assay [4] has as its system IRS1 tyrosine phosphorylation. As to the kind of experiment: IRS1 tyrosine phosphorylation, immunoprecipitation and Western blot. Particulars: insulin 100nM; for effect on insulin-stimulated IRS1 tyrosine phosphorylation: L6 cells, C2cer 10μM 18h, with or without Prep1(54-72). The protocol:
as §2, §1

The mark [5] stands for this setting: Prep1L6 cells (stably transfected with Prep1 cDNA), incubated with Prep1(54-72).

With `CCCCCCCCCCCCC/C=C/[C@@H](O)[C@H](CO)NC(C)=O` [C2cer, D-erythro-Sphingosine, N-Acetyl-, reference compound], the “reduction of insulin-stimulated glycogen content” value in assay [1] (C2cer exposure (abstract)) is 1.3 fold. Moreover, the “effect on insulin-stimulated glycogen synthesis” value in assay [1] is listed as “negatively modulated”. Also, the “decrease of PGC-1α and GLUT4 protein expression” value in assay [2] (L6 cells incubated with C2cer 10μM) is given as “approximately 35%”. In addition, the “effect on insulin-stimulated IR tyrosine phosphorylation” value in assay [3] is given as “blocked”. The “effect on insulin-stimulated IRS1 tyrosine phosphorylation” value in assay [4] is listed as “blocked”.

Consider “Ac-KQAIYRHPLFPLLALLFEK-NH2 [Prep1(54-72)]”, for which the “effect on insulin-stimulated glycogen synthesis” value in assay [1] is “recovered the insulin response”. Moreover, the “effect on decreased PGC-1α and GLUT4 protein expression” value in assay [2] (L6 cells with C2cer or Prep1 overexpression, Prep1(54-72)) is “significantly reverted”. The “effect on insulin-stimulated IR tyrosine phosphorylation” value in assay [3] is reported as “restored”. In addition, the “IR tyrosine phosphorylation in Prep1 overexpressing cells” value in assay [3] (setting [5]) is reported as “stimulated similarly to the control cells”. Moreover, the “effect on insulin-stimulated IRS1 tyrosine phosphorylation” value in assay [4] is “restored”. For the same compound, the “IRS1 tyrosine phosphorylation in Prep1 overexpressing cells” value in assay [4] (setting [5]) is on record as “stimulated similarly to the control cells”.
